According to patent US20210177023A1, “COMPOUNDS FOR SWEETNESS ENHANCEMENT” (International Flavors & Fragrances Inc., priority 2019, published 2021):

Assays:
Type in all cases: in vivo, human
[1] = Taste and smell of the compound alone
Description: A sucrose solution (4%) was prepared in water. Each of ligustrosidic acid and 2′-hydroxy ligustrosidic acid solutions of different concentrations was prepared in ethanol solution in water (50%). Ligustrosidic acid and 2′-hydroxy ligustrosidic acid were evaluated at 1 and 200 ppm, respectively. […] A sucrose solution (4%) was prepared in water. Each of verbascoside and isoverbascoside solutions of different concentrations was prepared in ethanol solution in water (50%). Verbascoside and isoverbascoside were evaluated at 1 and 200 ppm, respectively.

[2] = Enhancement of sucrose sweetness (flavor profile of sucrose solution with added substance); conditions: sucrose solution (4%); for overall effect when used with sucrose (summary in text): over the levels tested; for effect observed in sucrose solution: compound 5 ppm
Description: A sucrose solution (4%) was prepared in water. Each of ligustrosidic acid and 2′-hydroxy ligustrosidic acid solutions of different concentrations was prepared in ethanol solution in water (50%). Ligustrosidic acid and 2′-hydroxy ligustrosidic acid were evaluated at 1 and 200 ppm, respectively. […] Solutions of Chaenomeles speciosa leave extract containing ligustrosidic acid (0.61%), 2′-hydroxy ligustrosidic acid (0.62%), verbascoside (0.69%) and isoverbascoside (0.21%) were prepared in ethanol solution in water (50%) to obtain a series of concentrations ranging from 1 to 1000 ppm. Solutions of sucrose (4%) and Luo Han Guo (120 ppm) were prepared as above (EXAMPLE II and III). In addition, solutions of fructose (3.4%), Reb A (GLG Life Tech Corporation, Canada) (90 ppm) and GSG (Glucosyl Steviol Glucosides, GLG Life Tech Corporation, Canada) (200 ppm) were also prepared in water. The sucrose solution (4%) with the addition of various amount of Chaenomeles speciosa leave extract was evaluated. […] Each of verbascoside and isoverbascoside solutions of different concentrations was prepared in ethanol solution in water (50%). Verbascoside and isoverbascoside were evaluated at 1 and 200 ppm, respectively.

[3] = Enhancement of Luo Han Guo sweetness (flavor profile of Luo Han Guo solution with added substance); conditions: Luo Han Guo solution (120 ppm), over the levels tested
Description: A Luo Han Guo (Biovittoria Ltd., New Zealand) solution was prepared in water (120 ppm). Ligustrosidic acid and 2′-hydroxy ligustrosidic acid solutions were prepared as above (EXAMPLE II). The flavor profile of the Luo Han Guo solution with added ligustrosidic acid and 2′-hydroxy ligustrosidic acid is reported in the following: The effect of botanical extract such as Chaenomeles speciosa leave extract on sweetness was examined. Solutions of Chaenomeles speciosa leave extract containing ligustrosidic acid (0.61%), 2′-hydroxy ligustrosidic acid (0.62%), verbascoside (0.69%) and isoverbascoside (0.21%) were prepared in ethanol solution in water (50%) to obtain a series of concentrations ranging from 1 to 1000 ppm. Solutions of sucrose (4%) and Luo Han Guo (120 ppm) were prepared as above (EXAMPLE II and III). In addition, solutions of fructose (3.4%), Reb A (GLG Life Tech Corporation, Canada) (90 ppm) and GSG (Glucosyl Steviol Glucosides, GLG Life Tech Corporation, Canada) (200 ppm) were also prepared in water. The Luo Han Guo solution (120 ppm) with the addition of various amount of Chaenomeles speciosa leave extract was evaluated. The flavor profile is as follows: A Luo Han Guo (Biovittoria Ltd., New Zealand) solution was prepared in water (120 ppm). Verbascoside and isoverbascoside solutions were prepared as above (EXAMPLE XIII). The flavor profile of the Luo Han Guo solution with added verbascoside and isoverbascoside is reported in the following: […]

## C[C@@H]1O[C@@H](O[C@@H]2[C@@H](O)[C@H](OCCc3ccc(O)c(O)c3)O[C@H](COC(=O)/C=C/c3ccc(O)c(O)c3)[C@H]2O)[C@H](O)[C@H](O)[C@H]1O [Isoverbascoside, isoverbascoside]
[1]; evaluated at 200 ppm
  taste and smell of the compound itself: devoid of taste and smell
[2]
  overall effect when used with sucrose (summary in text): enhanced overall mouthfeel
[3]
  overall effect when used with Luo Han Guo (summary in text): enhanced overall mouthfeel and suppressed Luo Han Guo's lingering off-taste

## COC(=O)C1=COC(OC2OC(CO)C(O)C(O)C2O)C(=CC(=O)O)C1CC(=O)OCCc1ccc(O)cc1 (stereo in doubt) [Ligustrosidic Acid, [3-(carboxymethylene)-2-(β-D-glucopyranosyloxy)-3,4-dihydro-5-(methoxycarbonyl)]-2H-pyran-4-acetic acid-α-[2-(4-hydroxyphenyl)ethyl] ester]
[1]; evaluated at 1 ppm
  taste and smell of the compound itself: devoid of taste and smell
[2]; listed as Ligustrosidic acid
  overall effect when used with sucrose (summary in text): particularly strong effect
[2]; listed as ligustrosidic acid
  overall effect when used with sucrose (summary in text): enhanced overall sweetness, body and mouthfeel
[3]; listed as Ligustrosidic acid
  overall effect when used with Luo Han Guo (summary in text): particularly strong effect
[3]; listed as ligustrosidic acid
  overall effect when used with Luo Han Guo (summary in text): enhanced overall sweetness, body and mouthfeel

## C/C=C1/[C@H](O[C@@H]2O[C@H](CO)[C@@H](O)[C@H](O)[C@H]2O)OC=C(C(=O)OC)[C@H]1CC(=O)OCCc1ccc(O)cc1 [ligustroside]
[2]
  effect observed in sucrose solution: Some mouthfeel, slight drying or slightly fruity effect

## C[C@@H]1O[C@@H](O[C@@H]2[C@@H](O)[C@H](OCCc3ccc(O)c(O)c3)O[C@H](CO)[C@H]2OC(=O)/C=C/c2ccc(O)c(O)c2)[C@H](O)[C@H](O)[C@H]1O [Verbascoside, (E)-2-(3,4-dihydroxyphenyl)ethyl 3-O-(6-deoxy-α-L-mannopyranosyl)-4-[3-(3,4-dihydroxyphenyl)-2-propenoate]-β-D-Glucopyranoside]
[1]; evaluated at 1 ppm
  taste and smell of the compound itself: devoid of taste and smell
[2]
  overall effect when used with sucrose (summary in text): particular effect in sweetness enhancement
[3]
  overall effect when used with Luo Han Guo (summary in text): particular effect in sweetness enhancement

## C/C=C1\C(OC2OC(CO)C(O)C(O)C2O)OC=C(C(=O)OCCc2ccc(O)c(O)c2)C1CC(=O)OCCc1ccc(O)c(O)c1 (stereo not shown) [multifloroside]
[2]
  effect observed in sucrose solution: Some mouthfeel, slight drying or slightly fruity effect

## 2′-hydroxy ligustrosidic acid
[1]; evaluated at 200 ppm
  taste and smell of the compound itself: devoid of taste and smell
[2]
  overall effect when used with sucrose (summary in text): strong effect in sweetness enhancement
[3]
  overall effect when used with Luo Han Guo (summary in text): strong effect in sweetness enhancement
